Key:
Assay type in all cases: binding
[1] = target: T1, human dopamine transporter (hDAT) (Homo sapiens, UniProt Q01959); assay: Human dopamine transporter scintillation proximity assay, competition with [3H]-Vanoxerine; details: HEK-293 cells expressing recombinant hDAT; [3H]-Vanoxerine (GBR 12909); Cheng-Prusoff
T1 construct: expressed in transfected cells; whole cells plated on Cell-Tak coated 96 well plates
Description: This assay was used to determine the affinity of ligands for the dopamine transporter by competition with [^3H]-Vanoxerine.
HEK-293 cells (Tatsumi et al., Eur. J. Pharmacol. 1997, 30, 249-258) stably expressing recombinant hDAT were maintained with media (DMEM hi glucose with 10% FBS, 300 μg/ml G418 and 2 mM L-Glutamine) and incubated at 37° C. with 5% CO2. Cells were plated four hours prior to experiment by placing approximately 30,000 cells per well (in PBS) on white, opaque Cell-Tak coated 96 well plates. Extra buffer was apriated from the cell plates using an ELx405 plate washer.
^3[H] vanoxerine (GBR 12909) radioligand, specific activity approximately 59 Ci/mmol, stock concentration, 400 nM, and 50 mM Tris-HCl, 300 mM NaCl, (pH 7.4) buffers were used for Scintillation Proximity Assay IC50/Ki determination. […]
The % inhibition was calculated for each compound tested [(Compound CPM at maximum concentration-Non-Specific CPM)/Total CPM*100]. […]
(§1) [formula] where max=total binding, min=non specific binding, x=concentration (M) of the tested compound and n=Hill slope. The inhibition dissociation constant (Ki) of each compound was determined according to the method of Cheng-Prusoff and then converted into negative logarithm (pKi) of the Ki.

hSERT transporter = target: T2, hSERT transporter (Homo sapiens, UniProt P31645); assay: Human serotonin transporter (hSERT) scintillation proximity assay, competition with [3H]-Citalopram; details: membranes of HEK-293 cells expressing recombinant hSERT, Cheng-Prusoff
T2 construct: expressed in transfected cells; membrane preparation
T2 sequence (P31645 whole entry): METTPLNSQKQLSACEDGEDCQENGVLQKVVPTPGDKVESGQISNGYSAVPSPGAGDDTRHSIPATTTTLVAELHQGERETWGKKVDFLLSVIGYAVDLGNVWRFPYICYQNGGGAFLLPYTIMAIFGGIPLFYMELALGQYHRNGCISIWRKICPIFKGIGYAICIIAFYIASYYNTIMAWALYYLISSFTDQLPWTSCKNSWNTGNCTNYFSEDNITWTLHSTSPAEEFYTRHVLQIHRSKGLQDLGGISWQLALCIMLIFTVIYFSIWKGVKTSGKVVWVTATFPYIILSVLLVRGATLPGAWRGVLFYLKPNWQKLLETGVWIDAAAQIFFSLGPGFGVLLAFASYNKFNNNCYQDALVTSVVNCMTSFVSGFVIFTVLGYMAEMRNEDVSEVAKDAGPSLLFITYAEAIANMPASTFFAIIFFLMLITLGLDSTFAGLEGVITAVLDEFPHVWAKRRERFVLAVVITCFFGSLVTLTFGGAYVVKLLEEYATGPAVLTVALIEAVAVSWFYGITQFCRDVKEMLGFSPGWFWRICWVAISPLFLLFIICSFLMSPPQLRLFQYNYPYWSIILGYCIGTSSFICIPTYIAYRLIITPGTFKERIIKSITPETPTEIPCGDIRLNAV
Description: The screening assay of this example was used to determine the affinity of ligands at the hSERT transporter by competition with [^3H]-Citalopram.
Scintillation Proximity Assay (SPA) works by bringing radioligand within close proximity to the bead's scintillant to stimulate light emission. In this assay, the receptor-containing membranes were pre-coupled to the SPA beads and the binding of the appropriate radioligand to the transporter was measured. The light emission was proportional to the amount of bound radioligand. Unbound radioligand produced no signal as a result of distant proximity to scintillant (lack of energy transfer). […]
(§2) Cell membranes were prepared using a membrane preparation buffer of 50 mM TRIS (pH 7.4). […] After a second centrifugation, the pellet was re-homogenized and brought to a final volume determined during the assay. […]
The % inhibition was calculated for each compound tested [(Compound counts per minute (CPM) at maximum concentration-Non-Specific CPM)/Total CPM*100]. […]
as §1

hNET transporter = target: T3, hNET transporter (Homo sapiens, UniProt P23975); assay: Human norepinephrine transporter (hNET) scintillation proximity assay, competition with [3H]-Nisoxetine; details: membranes of HEK-293 cells expressing recombinant hNET, Cheng-Prusoff
T3 construct: expressed in transfected cells; membrane preparation
T3 sequence (P23975 whole entry): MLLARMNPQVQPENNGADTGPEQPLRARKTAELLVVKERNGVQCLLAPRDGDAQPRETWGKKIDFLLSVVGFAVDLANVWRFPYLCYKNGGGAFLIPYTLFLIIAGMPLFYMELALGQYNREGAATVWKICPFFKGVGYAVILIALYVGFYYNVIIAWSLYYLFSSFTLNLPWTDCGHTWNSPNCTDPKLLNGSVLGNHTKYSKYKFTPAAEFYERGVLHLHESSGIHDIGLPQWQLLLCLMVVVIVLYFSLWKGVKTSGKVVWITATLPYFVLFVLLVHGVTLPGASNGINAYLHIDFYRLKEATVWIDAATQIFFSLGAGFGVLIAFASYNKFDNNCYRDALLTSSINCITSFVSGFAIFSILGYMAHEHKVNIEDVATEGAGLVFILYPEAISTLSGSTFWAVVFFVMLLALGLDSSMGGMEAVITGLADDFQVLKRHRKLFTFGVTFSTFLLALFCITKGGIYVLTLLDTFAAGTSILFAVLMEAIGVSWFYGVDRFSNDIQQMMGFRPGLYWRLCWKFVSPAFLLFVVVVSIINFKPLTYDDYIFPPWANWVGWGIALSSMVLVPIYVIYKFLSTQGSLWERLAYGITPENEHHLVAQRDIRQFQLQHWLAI
Description: This assay was used to determine the affinity of ligands for the hNET transporter by competition with [^3H]-Nisoxetine. As in the hSERT assay of the above example, receptor-containing membranes were pre-coupled to the SPA beads and the binding of the appropriate radioligand to the transporter was measured. The light emission was proportional to the amount of bound radioligand, with unbound radioligand producing no signal.
HEK-293 cells (Tatsumi et al., Eur. J. Pharmacol. 1997, 30, 249-258) stably expressing recombinant hNET (Clone: HEK-hNET #2) were maintained with media (DMEM hi glucose with 10% FBS, 300 μg/ml G418 and 2 mM L-Glutamine) and incubated at 37° C. with 5% CO2. Cells were released from culture flasks using PBS for 1-2 minutes. […]
as §2
^3[H] […] The mixtures were allowed to stand at room temperature for one hour, and were then counted on a Packard TopCount LCS, a generic SPA counting protocol settings (Energy Range: Low, Efficiency Mode: Normal, Region A: 1.50-35.00, Region B: 1.50-256.00, Count Time (min.): 0.40, Background Subtract: none, Half-Life Correction: no, Quench Indicator: tSIS, Platemap blank subtraction: No, Cross talk reduction: Off). […]

T1 sequence (Q01959 whole entry): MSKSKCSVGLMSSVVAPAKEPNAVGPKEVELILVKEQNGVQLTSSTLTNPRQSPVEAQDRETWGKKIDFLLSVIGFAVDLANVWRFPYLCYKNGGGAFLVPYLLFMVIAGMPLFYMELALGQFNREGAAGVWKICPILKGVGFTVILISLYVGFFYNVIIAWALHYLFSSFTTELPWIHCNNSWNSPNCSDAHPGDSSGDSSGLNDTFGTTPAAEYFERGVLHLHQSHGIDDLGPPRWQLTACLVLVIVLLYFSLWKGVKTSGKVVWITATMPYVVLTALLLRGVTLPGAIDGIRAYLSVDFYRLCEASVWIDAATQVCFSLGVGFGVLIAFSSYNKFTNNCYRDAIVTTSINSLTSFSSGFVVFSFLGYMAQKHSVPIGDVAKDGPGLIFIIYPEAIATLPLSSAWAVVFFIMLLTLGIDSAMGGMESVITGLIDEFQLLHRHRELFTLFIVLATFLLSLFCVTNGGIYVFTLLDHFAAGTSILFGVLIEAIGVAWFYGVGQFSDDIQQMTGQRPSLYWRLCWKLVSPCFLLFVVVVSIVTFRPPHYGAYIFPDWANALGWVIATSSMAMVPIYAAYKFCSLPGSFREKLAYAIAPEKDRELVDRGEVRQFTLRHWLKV

## c1ccc2c(c1)CNCCC2c1ccc2[nH]ccc2c1 (stereo not drawn) [5-(1H-Indol-5-yl)-2,3,4,5-tetrahydro-1H-benzo[c]azepine]
[1]
  Ki: ~0.002 µM
hSERT transporter
  Ki: ~0.126 µM
hNET transporter
  Ki: ~0.01 µM
